# Experimental data: ChEMBL document CHEMBL3822394, “Discovery of a Potent, Selective, Orally Bioavailable, and Efficacious Novel 2-(Pyrazol-4-ylamino)-pyrimidine Inhibitor of the Insulin-like Growth Factor-1 Receptor (IGF-1R)” (J Med Chem, 2016)
# pIC50: −log10 of the molar value. Activity calls are given as the source filed them. No cut-off for these calls is given here.
# Key:
# [1] = Octanol-buffer partition co-efficient, log D of the compound at pH 7.4 by shake-flask method; type: physicochemical
# [2] = Intrinsic clearance in human hepatocytes assessed per 10^6 cells; type: ADME, cell-based, Hepatocyte; conditions: read-out: CLH
# [3] = Clearance in Han Wistar rat plasma at 2 or 4 umol/kg, iv or 10 umol/kg, po; type: ADME, organism-based
# [4] = Intrinsic clearance in dog hepatocytes assessed per 10^6 cells; type: ADME, cell-based, Canis lupus familiaris, Hepatocyte; conditions: read-out: CLH
# [5] = Thermodynamic solubility of the compound in aqueous phosphate buffer at pH 7.4 at 25 degC after 24 hrs by LC-UV method; type: physicochemical; conditions: read-out: Therm_solubility
# [6] = Oral bioavailability in Beagle dog at 10 umol/kg; type: ADME, organism-based, Canis lupus familiaris; conditions: in vivo
# [7] = Fraction unbound in rat plasma by equilibrium dialysis; type: ADME, cell-free
# [8] = Oral bioavailability in Han Wistar rat plasma at 10 umol/kg; type: ADME, organism-based
# [9] = Volume of distribution at steady state in Beagle dog at 1 or 4 umol/kg, iv or 10 umol/kg, po; type: ADME, organism-based, Canis lupus familiaris; conditions: in vivo, read-out: Vdss
# [10] = Intrinsic clearance in rat hepatocytes assessed per 10^6 cells; type: ADME, cell-based, Hepatocyte; conditions: read-out: CLH
# [11] = Fraction unbound in dog plasma by equilibrium dialysis; type: ADME, cell-free, Canis lupus familiaris
# [12] = Volume of distribution at steady state in Han Wistar rat plasma at 2 or 4 umol/kg, iv or 10 umol/kg, po; type: ADME, organism-based; conditions: read-out: Vdss
# [13] = Clearance in Beagle dog plasma at 1 or 4 umol/kg, iv or 10 umol/kg, po; type: ADME, organism-based, Canis lupus familiaris
# [14] = molecular target: Cyclin-dependent kinase 2 (Homo sapiens, UniProt P24941)
# Cytochrome P450 3A4 = Cytochrome P450 3A4 (Homo sapiens, UniProt P08684)
# Sequence of Cytochrome P450 3A4 (P08684 whole entry): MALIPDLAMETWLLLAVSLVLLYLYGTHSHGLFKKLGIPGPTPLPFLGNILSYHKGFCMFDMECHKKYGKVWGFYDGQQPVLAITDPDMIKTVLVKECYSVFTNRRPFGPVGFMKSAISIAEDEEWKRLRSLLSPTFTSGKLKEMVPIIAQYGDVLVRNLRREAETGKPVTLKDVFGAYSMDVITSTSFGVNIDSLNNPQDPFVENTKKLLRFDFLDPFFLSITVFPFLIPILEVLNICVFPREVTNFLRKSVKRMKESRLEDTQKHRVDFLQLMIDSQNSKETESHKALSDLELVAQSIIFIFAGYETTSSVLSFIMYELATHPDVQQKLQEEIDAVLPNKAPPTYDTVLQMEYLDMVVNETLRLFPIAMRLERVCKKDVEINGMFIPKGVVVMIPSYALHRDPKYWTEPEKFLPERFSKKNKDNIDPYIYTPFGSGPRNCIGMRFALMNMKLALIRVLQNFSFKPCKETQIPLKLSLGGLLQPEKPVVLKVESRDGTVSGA
# [15] = molecular target: Cyclin-dependent kinase 8 (Homo sapiens, UniProt P49336)
# Sequence of Cyclin-dependent kinase 8 (P49336 whole entry): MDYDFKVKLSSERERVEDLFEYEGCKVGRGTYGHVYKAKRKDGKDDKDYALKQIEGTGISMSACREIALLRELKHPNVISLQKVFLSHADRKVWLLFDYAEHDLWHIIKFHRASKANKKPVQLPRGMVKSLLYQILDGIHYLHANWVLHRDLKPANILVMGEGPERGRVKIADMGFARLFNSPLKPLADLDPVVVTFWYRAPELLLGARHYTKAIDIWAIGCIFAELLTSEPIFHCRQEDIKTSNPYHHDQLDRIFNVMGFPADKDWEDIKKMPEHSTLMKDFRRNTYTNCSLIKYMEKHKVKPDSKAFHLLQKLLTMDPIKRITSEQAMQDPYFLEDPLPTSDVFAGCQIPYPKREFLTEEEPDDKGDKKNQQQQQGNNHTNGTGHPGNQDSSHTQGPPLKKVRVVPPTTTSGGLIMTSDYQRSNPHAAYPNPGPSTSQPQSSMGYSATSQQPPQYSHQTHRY
# [16] = molecular target: Cyclin-dependent kinase 7 (Homo sapiens, UniProt P50613)
# Sequence of Cyclin-dependent kinase 7 (P50613 whole entry): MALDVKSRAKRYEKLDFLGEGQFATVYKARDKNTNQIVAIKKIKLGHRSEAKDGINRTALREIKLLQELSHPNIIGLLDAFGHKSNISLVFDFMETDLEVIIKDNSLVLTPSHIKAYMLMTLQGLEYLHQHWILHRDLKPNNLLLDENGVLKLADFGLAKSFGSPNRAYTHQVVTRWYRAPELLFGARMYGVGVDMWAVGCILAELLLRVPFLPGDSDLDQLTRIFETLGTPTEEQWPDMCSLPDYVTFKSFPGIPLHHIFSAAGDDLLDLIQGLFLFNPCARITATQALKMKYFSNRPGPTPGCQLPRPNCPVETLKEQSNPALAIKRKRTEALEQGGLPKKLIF
# [17] = molecular target: Cyclin-dependent kinase 9 (Homo sapiens, UniProt P50750)
# Sequence of Cyclin-dependent kinase 9 (P50750 whole entry): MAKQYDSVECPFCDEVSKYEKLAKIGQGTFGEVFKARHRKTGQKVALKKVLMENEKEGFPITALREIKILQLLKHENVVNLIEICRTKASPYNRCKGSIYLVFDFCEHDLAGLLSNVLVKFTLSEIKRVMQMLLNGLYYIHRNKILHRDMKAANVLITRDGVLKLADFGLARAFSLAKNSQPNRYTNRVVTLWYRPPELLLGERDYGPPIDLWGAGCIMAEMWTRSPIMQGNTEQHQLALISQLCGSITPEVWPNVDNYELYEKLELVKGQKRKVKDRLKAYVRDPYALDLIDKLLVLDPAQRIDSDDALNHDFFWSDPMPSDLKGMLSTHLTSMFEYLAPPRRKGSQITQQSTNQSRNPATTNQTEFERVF
# [18] = molecular target: Cyclin-dependent kinase 1 (Homo sapiens, UniProt P06493)
# Sequence of Cyclin-dependent kinase 1 (P06493 whole entry): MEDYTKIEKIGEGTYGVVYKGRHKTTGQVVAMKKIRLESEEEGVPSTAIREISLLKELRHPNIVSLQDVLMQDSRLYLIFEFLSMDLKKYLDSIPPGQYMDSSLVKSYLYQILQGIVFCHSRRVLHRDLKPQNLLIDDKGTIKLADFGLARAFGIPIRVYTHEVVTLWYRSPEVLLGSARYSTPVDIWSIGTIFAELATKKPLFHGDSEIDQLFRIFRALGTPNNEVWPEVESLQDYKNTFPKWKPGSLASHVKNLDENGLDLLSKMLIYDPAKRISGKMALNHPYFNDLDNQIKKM
# [19] = Oral bioavailability in Han Wistar rat blood at 10 umol/kg; type: ADME, organism-based; conditions: whole blood
# [20] = Clearance in Han Wistar rat blood at 2 or 4 umol/kg, iv or 10 umol/kg, po; type: ADME, organism-based; conditions: whole blood
# [21] = Volume of distribution at steady state in Han Wistar rat blood at 2 or 4 umol/kg, iv or 10 umol/kg, po; type: ADME, organism-based; conditions: whole blood, read-out: Vdss
# COLO 205 [22] = experiment: Antitumor activity against human COLO205 cells xenografted in nude mouse assessed as tumor growth inhibition at 50 mg/kg, po for 2 days per week; type: functional, organism-based
# COLO 205 [23] = experiment: Potentiation of gemcitabine-induced antitumor activity against human COLO205 cells xenografted in nude mouse assessed as tumor growth inhibition at 50 mg/kg, po for 1 week followed by drug cessation measured after 14 days; type: functional, organism-based
# COLO 205 [24] = experiment: Potentiation of gemcitabine-induced antitumor activity against human COLO205 cells xenografted in nude mouse assessed as tumor growth inhibition at 25 mg/kg, po for 2 weeks; type: functional, organism-based
# [25] = Cmax in nude mouse at 50 mg/kg, po; type: ADME, organism-based; set-up: dose 50 mg/kg, route oral; conditions: in vivo
# P12 [26] = experiment: Antitumor activity against mouse P12 cells allografted in nu/nu mouse assessed as tumor growth inhibition at 12.5 to 25 mg/kg, po qd for 7 days; type: functional, organism-based
# COLO 205 [27] = experiment: Potentiation of gemcitabine-induced antitumor activity against human COLO205 cells xenografted in nude mouse assessed as increase in stasis at 50 mg/kg, po for 1 week; type: functional, organism-based
# P12 [28] = experiment: Inhibition of IGF1R phosphorylation in mouse P12 cells allografted in po dosed nu/nu mouse administered as single dose measured after 1 to 2 hrs post dosing; type: functional, organism-based
# [29] = AUC in nude mouse at 50 mg/kg, po; type: ADME, organism-based; conditions: in vivo
# Mus musculus = experiment: T>IC50 for IGF1R in nude mouse at 50 mg/kg, po
smiles,measurement,setting,value
COc1nn(C2CCN(C(C)=O)CC2)cc1Nc1ncc(Cl)c(-c2cnc3ccccn23)n1,logD,[1],2.9
CC(=O)N1CCC(n2ncc(Nc3ncc(Cl)c(-c4cnn5ccccc45)n3)c2C)CC1,hepatocyte CLint,[2],< 3 µL/min/1e6 cells
same,clearance,[3],45 mL/min/kg
same,hepatocyte CLint,[4],4.8 µL/min/1e6 cells
same,solubility thermodynamic at 24 h,[5],9 µM
same,logD,[1],3.2
same,bioavailability,[6],63%
same,fraction unbound,[7],0.057
same,bioavailability,[8],6%
same,Vd,[9],0.7 L/kg
same,hepatocyte CLint,[10],77 µL/min/1e6 cells
same,fraction unbound,[11],0.081
same,Vd,[12],0.4 L/kg
same,clearance,[13],6 mL/min/kg
CNC(=O)CN1CCC(n2nc(C)c(Nc3ncc(Cl)c(-c4cnn5ccccc45)n3)c2C)CC1,solubility thermodynamic at 24 h,[5],15 µM
same,logD,[1],3.2
CC(=O)N1CCC(n2nc(C)c(Nc3ncc(Cl)c(-c4cnc5ccccn45)n3)c2C)CC1,logD,[1],2.8
Cc1nn(C2CCN(C(=O)[C@@H](C)N)CC2)c(C)c1Nc1ncc(Cl)c(-c2cnn3ccccc23)n1,solubility thermodynamic at 24 h,[5],620 µM
same,logD,[1],1.7
CC(=O)N1CCC(n2cc(Nc3ncc(Cl)c(-c4cnc5ccccn45)n3)c(C)n2)CC1,logD,[1],2.8
same,pIC50,[14],6.87
CCOc1nn(C2CCN(C(C)=O)CC2)cc1Nc1ncc(Cl)c(-c2cnn3ccccc23)n1,logD,[1],3.5
Cc1nn(C2CCN(C(=O)CO)CC2)c(C)c1Nc1ncc(Cl)c(-c2cnn3ccccc23)n1,hepatocyte CLint,[2],< 3 µL/min/1e6 cells
same,clearance,[3],8 mL/min/kg
same,hepatocyte CLint,[4],6.4 µL/min/1e6 cells
same,solubility thermodynamic at 24 h,[5],2 µM
same,logD,[1],2.6
same,bioavailability,[6],6%
same,fraction unbound,[7],0.091
same,bioavailability,[8],81%
same,Vd,[9],1.6 L/kg
same,hepatocyte CLint,[10],12 µL/min/1e6 cells
same,fraction unbound,[11],0.12
same,Vd,[12],1.2 L/kg
same,clearance,[13],5 mL/min/kg
Cc1nn(C2CCNCC2)c(C)c1Nc1ncc(Cl)c(-c2cnn3ccccc23)n1,solubility thermodynamic at 24 h,[5],91 µM
same,logD,[1],1.2
COc1cc(N2CCN(C(C)=O)CC2)ccc1Nc1ncc(Cl)c(-c2cnn3ccccc23)n1,pIC50,Cytochrome P450 3A4,> 6.00
same,solubility thermodynamic at 24 h,[5],1 µM
same,logD,[1],3.7
same,pIC50,[14],5.99
Cc1nn(C2CCN(C(=O)CN)CC2)c(C)c1Nc1ncc(Cl)c(-c2cnn3ccccc23)n1,solubility thermodynamic at 24 h,[5],260 µM
same,logD,[1],1.3
CC(=O)N1CCC(n2ncc(Nc3ncc(Cl)c(-c4cnc5ccccn45)n3)c2C)CC1,logD,[1],2.7
CC(=O)N1CCC(n2nc(C)c(Nc3ncc(Cl)c(-c4cnn5ccccc45)n3)c2C)CC1,hepatocyte CLint,[2],8.9 µL/min/1e6 cells
same,clearance,[3],18 mL/min/kg
same,hepatocyte CLint,[4],9.6 µL/min/1e6 cells
same,solubility thermodynamic at 24 h,[5],4 µM
same,logD,[1],3.1
same,fraction unbound,[7],0.086
same,bioavailability,[8],61%
same,hepatocyte CLint,[10],23 µL/min/1e6 cells
same,fraction unbound,[11],0.12
same,Vd,[12],1.3 L/kg
CC(=O)N1CCC(n2cc(Nc3ncc(Cl)c(-c4cnc5ccccn45)n3)cn2)CC1,pIC50,[15],7.38
same,logD,[1],3.1
same,pIC50,[14],7.60
same,pIC50,[16],7.68
same,pIC50,[17],7.43
same,pIC50,[18],7.18
COCC(=O)N1CCC(n2nc(C)c(Nc3ncc(Cl)c(-c4cnn5ccccc45)n3)c2C)CC1,solubility thermodynamic at 24 h,[5],31 µM
same,logD,[1],2.8
Cc1c(Nc2ncc(Cl)c(-c3cnc4ccccn34)n2)cnn1C1CCNCC1,logD,[1],0.9
Cc1nn(C2CCNCC2)cc1Nc1ncc(Cl)c(-c2cnc3ccccn23)n1,logD,[1],1.1
CC(=O)N1CCC(n2cc(Nc3ncc(Cl)c(-c4cnn5ccccc45)n3)c(C)n2)CC1,bioavailability,[19],9%
same,clearance,[20],62 mL/min/kg
same,solubility thermodynamic at 24 h,[5],9 µM
same,logD,[1],3.2
same,fraction unbound,[7],0.072
same,hepatocyte CLint,[10],48 µL/min/1e6 cells
same,Vd,[21],1.6 L/kg
COc1nn(C2CCN(C(C)=O)CC2)cc1Nc1ncc(Cl)c(-c2cnn3ccccc23)n1,logD,[1],3.3
Cc1nn(C2CCN(CCO)CC2)c(C)c1Nc1ncc(Cl)c(-c2cnn3ccccc23)n1,solubility thermodynamic at 24 h,[5],37 µM
same,logD,[1],2.5
Cc1nn(C2CCN(CC(=O)N(C)C)CC2)c(C)c1Nc1ncc(Cl)c(-c2cnn3ccccc23)n1,solubility thermodynamic at 24 h,[5],510 µM
same,logD,[1],2.9
Cc1nn(C2CCN(C(=O)[C@H](C)N)CC2)c(C)c1Nc1ncc(Cl)c(-c2cnn3ccccc23)n1,solubility thermodynamic at 24 h,[5],670 µM
same,logD,[1],1.7
Cc1nn(C2CCN(C(=O)[C@@H](C)O)CC2)c(C)c1Nc1ncc(Cl)c(-c2cnn3ccccc23)n1,TGI,COLO 205 [22],Active
same,TGI,COLO 205 [23],Active
same,hepatocyte CLint,[2],< 3 µL/min/1e6 cells
same,clearance,[3],15 mL/min/kg
same,hepatocyte CLint,[4],8.1 µL/min/1e6 cells
same,solubility thermodynamic at 24 h,[5],17 µM
same,TGI,COLO 205 [24],Active
same,logD,[1],2.9
same,Cmax,[25],12 µM
same,bioavailability,[6],38%
same,TGI,P12 [26],Active
same,Activity,COLO 205 [27],Active
same,fraction unbound,[7],0.18
same,inhibition,P12 [28],Dose-dependent effect
same,bioavailability,[8],58%
same,AUC,[29],30 µM·h
same,Vd,[9],1.3 L/kg
same,hepatocyte CLint,[10],21 µL/min/1e6 cells
same,fraction unbound,[11],0.12
same,Vd,[12],0.8 L/kg
same,Time,Mus musculus,8 h
same,clearance,[13],7 mL/min/kg
CCc1c(Nc2ncc(Cl)c(-c3cnn4ccccc34)n2)cnn1C1CCN(C(C)=O)CC1,logD,[1],3.3
CNCC(=O)N1CCC(n2nc(C)c(Nc3ncc(Cl)c(-c4cnn5ccccc45)n3)c2C)CC1,solubility thermodynamic at 24 h,[5],> 1000 µM
same,logD,[1],1.4
CCc1nn(C2CCN(C(C)=O)CC2)cc1Nc1ncc(Cl)c(-c2cnn3ccccc23)n1,logD,[1],3.4
Cc1nn(C2CCN(C(=O)[C@H](C)O)CC2)c(C)c1Nc1ncc(Cl)c(-c2cnn3ccccc23)n1,solubility thermodynamic at 24 h,[5],17 µM
same,logD,[1],2.8
